Test results as given in patent US20070191319A1, “Treatment of conditions that present with low bone mass by continuous combination therapy with selective prostaglandin ep4 receptor agonists and an estrogen” (Pfizer Inc., priority 2003, published 2007).

Test system: ovariectomized (OVX) rat skeleton
Assay: Continuous combination therapy protocol in OVX rats, pQCT of femur
Type: in vivo, Sprague-Dawley (S-D) female rats
Details: 4 weeks treatment, EP4 agonist 0.3 mg/kg/d by Alzet pump, E2 0.01 mg/kg/d by pellets
Source text: Prostaglandin E2 (PGE2) restores bone mass by stimulating both bone formation and bone resorption but in favor of bone formation in ovariectomized (OVX) rat skeleton. 5-(3-{2S-[3R-Hydroxy-4-(3-trifluoromethyl-phenyl)-butyl}-5-oxo-pyrrolidin-1-yl}-propyl)-thiophene-2-carboxylic acid, an EP4 receptor selective agonist, can mimic PGE2's systemic bone anabolic effects when given by daily subcutaneous injection. However, like PGE2, slow release delivery of 5-(3-{2S-[3R-hydroxy-4-(3-trifluoromethyl-phenyl)-butyl}-5-oxo-pyrrolidin-1-yl}-propyl)-thiophene-2-carboxylic acid, by Alzet pump may cause bone loss by stimulating both bone resorption and bone formation but in favor of bone resorption in OVX rat skeleton. Estrogen (17-βestradiol) inhibits bone resorption and turnover, thus preventing bone loss in OVX rats. […] Sprague-Dawley (S-D) female rats were sham-operated (n=20) or OVX (n=50) at 3.5 months of age. Three and an half months post-surgery, OVX rats were treated with either vehicle, 5-(3-{2S-[3R-hydroxy-4-(3-trifluoromethyl-phenyl)-butyl}-5-oxo-pyrrolidin-1-yl}-propyl)-thiophene-2-carboxylic acid at 0.3 mg/kg/d (by Alzet pumps in subcutaneous area, […] release rate, for duration of 14 days, replace the pumps at day 15), or 17-βestradiol (E2) at 0.01 mg/kg/d (administered by 30 day release pellets), or combined 5-(3-{2S-[3R-hydroxy-4-(3-trifluoromethyl-phenyl)-butyl}-5-oxo-pyrrolidin-1-yl}-propyl)-thiophene-2-carboxylic acid at 0.3 mg/kg/d (by Alzet pumps in subcutaneous area, […] release rate, for duration of 28 days) and 17-βestradiol (E2) at 0.01 mg/kg/d (administered by 30 day release pellets) for 4 weeks. Total mineral density and cortical bone area of distal femoral metaphysis and femoral shaft were determined by peripheral […] computerized tomography (pQCT) as described previously (Ke H. Z. et al., Lasofoxifene protects against the age-related changes in bone mass, bone strength, and total serum cholesterol in intact aged male rats. J. of Bone and Mineral Research, 2001;16:765-773).

| Compound | change in cortical bone area of distal femoral metaphysis compared with OVX controls | change in cortical bone area of femoral shaft compared with OVX controls | change in total mineral density of distal femoral metaphysis compared with OVX controls | change in total mineral density of femoral shaft compared with OVX controls |
| --- | --- | --- | --- | --- |
| C[C@]12CC[C@@H]3c4ccc(O)cc4CC[C@H]3[C@@H]1CC[C@@H]2O [17-βestradiol (E2), 17β-estradiol] | did not cause significant change | no significant change | did not cause significant change | no significant change |
| O=C(O)c1ccc(CCCN2C(=O)CC[C@@H]2CC[C@@H](O)Cc2cccc(C(F)(F)F)c2)s1 [5-(3-{2S-[3R-Hydroxy-4-(3-trifluoromethyl-phenyl)-butyl]-5-oxo-pyrrolidin-1-yl}-propyl)-thiophene-2-carboxylic acid] | −15% | no significant change | −15% | no significant change |
